For seven compounds, Ki results are on record in BindingDB's records for doi:10.1021/ja0446404 (Yale University, 2005).

Molecules are shown by their SMILES. pKi: −log10 of the molar value.

The first assay deals with Bcl-2-like protein 1 (Homo sapiens, UniProt Q07817). The assay can be described thus: Fluorescence Polarization Assay.
Sequence of Bcl-2-like protein 1 (Q07817 whole entry): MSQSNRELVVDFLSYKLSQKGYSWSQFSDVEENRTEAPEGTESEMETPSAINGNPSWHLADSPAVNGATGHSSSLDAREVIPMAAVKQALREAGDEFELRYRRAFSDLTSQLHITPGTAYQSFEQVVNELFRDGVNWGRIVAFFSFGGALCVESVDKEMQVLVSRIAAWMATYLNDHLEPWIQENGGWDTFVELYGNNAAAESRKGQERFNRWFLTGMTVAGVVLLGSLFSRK
Settings: not given
The method, then: Fluorescence polarization experiments were conducted on a Photon Technology International instrument using a 0.3 cm path length cuvette. Spectra were measured at 25 deg C using 10.0 nm slit widths. Excitation at 495 nm was used for the fluorescein-containing peptide Fl-Bak and the emission maximum at 535 nm was monitored. Polarization measurements were recorded upon titration of inhibitors at varying concentrations into a solution of Fl-Bak and Bcl-xL.
In general terms: Fluorescence polarisation rises when a labelled molecule tumbles more slowly, as on binding a larger partner.
By pKi is commonly meant the negative decadic logarithm of the Ki, by convention in mol/L. High values mean a low Ki, low ones a high Ki. `CC(C)C[C@H](NC(=O)c1ccc(C(=O)N(CC(C)C)[C@H](C(=O)O)C(C)C)cc1OC(C)C)C(=O)O` [terephthalamide scaffold, 47] gave a pKi of 3.35.

`CC(C)C[C@H](NC(=O)c1ccc(C(=O)N[C@@H](CC(C)C)C(=O)O)c(Oc2ccc3ccccc3c2)c1)C(=O)O` [terephthalamide scaffold, 50]: the pKi is 4.09.

Staying with this assay, now noted: pH 7.4; 25 °C.
`CC(C)C[C@H](NC(=O)c1ccc(C(=O)N(C(C)C)C(C)C)cc1Oc1ccc2ccccc2c1)C(=O)O` [terephthalamide scaffold, 31] showed a pKi of 5.12.

As for `COC(=O)[C@H](Cc1ccccc1)NC(=O)c1ccc(C(=O)N(C(C)C)C(C)C)cc1OC(C)C` [terephthalamide scaffold, 25], the pKi was 4.96.

`COC(=O)[C@H](CC(C)C)NC(=O)c1ccc(C(=O)N(C(C)C)C(C)C)cc1Oc1ccc([N+](=O)[O-])cc1` [terephthalamide scaffold, 32]: the pKi was 4.88.

Compound `COC(=O)[C@H](CC(C)C)NC(=O)c1ccc(C(=O)N(C)C)cc1OC(C)C` [terephthalamide scaffold, 34] had a pKi of 5.50.

For the compound `COc1cc(C(=O)N(C(C)C)C(C)C)ccc1C(=O)N[C@@H](CC(C)C)C(=O)O` [terephthalamide scaffold, 28], the pKi was 5.64.
